We go through 29 compounds from US6265603A, “Inhibitors of isoprenyl transferase” (Eisai Co., Ltd., priority 1999, dated 2001).

One assay addresses FTase (Homo sapiens, UniProt P49354+P49356). Description: In vitro inhibition of FTase-mediated prenylation (recombinant FTase, recombinant H-ras, [3H] farnesylpyrophosphate). It counts as biochemical. The following applies: 15 min, 37° C.; 3 μM recombinant H-ras, 440 nM [3H] farnesylpyrophosphate. On the procedure: (§1) The ability of the disclosed inhibitor compounds to inhibit FTase was measured according to a published prenylation assay (Moores et al., J. Biol Chem. 266:14603 (1991)). Recombinant FTase with 3 μM recombinant H-ras and 440 nM [^3 H] farnesylpyrophosphate were used were used. The inhibitors were diluted in assay buffer, and each assay mixture was incubated 15 min. at 37° C. Where inhibition of GGTase I was measured, GGTase I with 5 μM recombinant, H-ras (61 L, CAIL) and 1 mM [^3 H] geranylgeranyl diphosphate were used.
(§2) Nanomolar concentrations of the indicated compounds were sufficient to inhibit farnesylation of ras proteins in vitro. For screening candidate compounds useful for the treatment of ras-associated tumors, the FTase assay is preferred. […] Substitutions which confer GGTase I specificity as taught herein also produced potent inhibitors of GGTase I.

Another assay deals with GGTase I (Homo sapiens, UniProt P49354+P53609). Description: In vitro inhibition of GGTase I-mediated prenylation (H-ras (61 L, CAIL), [3H] geranylgeranyl diphosphate). The format is biochemical. The following applies: 5 μM recombinant H-ras (61 L, CAIL), 1 mM [3H] geranylgeranyl diphosphate. On the procedure:
as §1, §2

The test system of the next assay is H-ras. Put plainly: Inhibition of H-ras prenylation/processing in whole cells (H-ras (61 L) transformed NIH3T3 fibroblasts, Western blot). It counts as cell-based. The following applies: for IC50: Mus musculus; for IC50 / H-ras processing, % inhibition @ 50: H-ras (61 L) transformed NIH3T3 fibroblasts, 24 h, 50 μM lovastatin as 100% reference; for H-ras processing, % inhibition @ 50: @ 50 [μM]. On the procedure:
The ability of compounds of the invention to inhibit H-ras farnesylation was determined. H-ras (61 L) transformed NIH3T3 fibroblasts were generously provided by C. Der, Univ. N. Carolina. These fibroblasts were treated for 24 h with 50 μM lovastatin or vehicle control or the indicated concentrations of inhibitor. Lovastatin is an HMG-CoA reductase inhibitor. HMG-CoA reductase is an essential enzyme in the cellular synthesis of the prenyl groups with which ras proteins are modified. The cells were lysed in 1% NP-40, 5 mM Tris-HCl (pH 8.0), 5 mM EDTA, 0.1 mM N-tosyl-L-phenylalanine chloromethyl ketone, 0.1 mM N-tosyl-L-lysine chloromethyl ketone, and 1 mM phenylmethylsulfonyl fluoride. The lysate was centrifuged (15000×g, 5 min.) and the supernatant was used as a cell extract. Total protein was separated by SDS-PAGE in 15% acrylamide gel. Processed ras can be differentiated from non-processed ras by its mobility in polyacrylamide gels. After transfer to IMMOBILON P™ membrane (Millipore), the blots were probed with LA069 mouse monoclonal antibody to H-ras (Quality Biotech). All Western blots were developed using ECL chemiluminescent reagents (Amersham) and the relative amounts of farnesylated and non-farnesylated ras were quantitated using the inhibition obtained by 50 μM lovastatin as 100% reference.
Sub-micromolar concentrations are sufficient to inhibit farnesylation of ras proteins in whole cells.
Background: In western blotting, separated proteins are transferred to a membrane and probed.

In assay [1] the test system is H-ras (61 L) transformed NIH3T3 fibroblasts. Put plainly: Inhibition of tumor growth of H-ras (61 L) transformed NIH3T3 xenograft in athymic nude mice. The format is in vivo. The following applies: 100, 50 and 25 mg/kg i.v. daily for 5 days; measured days 7, 10, 14. On the procedure: H-ras (61 L) transformed NIH3T3 fibroblasts were grown in Dulbecco's modified Eagle's medium supplemented with 10% heat-inactivated calf serum. 100 U/mL penicillin, 100 μg/mL streptomycin, and 0.75 mg/mL G418 (GIBCO) and incubated at 37° C. in 5% CO2. Cells were harvested from exponential-phase cultures with trypsin-EDTA, centrifuged at 160×g for 5 min, washed once with 10 mL cold Hank's balanced salt solution (HBSS, GIBCO), and resuspended at a concentration of 1×10^6 cells/mL.
Five week old female athymic nude mice were obtained from SLC (3371-8, Kotoummachi, Hamamatsu-shi, Shizuoka 431-11, Japan) and maintained under pathogen-free conditions. The mice were subcutaneously injected in the lateral flank with 1×10^5 H-ras transformed cells/mouse.
Inhibitor compound 1 was suspended in 5% glucose in a total injection volume of 0.2 mL. Three dosage concentrations were prepared, 100, 50 and 25 mg/kg. Compound 1 was intravenously injected daily in the tail vein for 5 consecutive days, starting the day after the implantation (day 0). The control group was injected with vehicle only. Body weight and tumor dimensions were measured at days 7, 10, and 14. Tumor volume was estimated by the following calculation: tumor volume=(0.5)(length×width×width). At day 14, each mouse was euthanized with CO2 (g), and each tumor was excised and weighed. […]

Some results are limits rather than exact numbers.

Usually IC50 stands for the concentration at which inhibition is half-maximal. As for `CSCC[C@H](NC(=O)c1ccc(OC/C=C/[C@@H](N)CS)cc1)C(=O)O` [Compound 8], the IC50 is 0.89 µM on FTase and above 100 µM at GGTase I.

For the compound `COC(=O)[C@H](CCSC)NC(=O)c1ccc(OC[C@@H](/C=C/[C@@H](N)CS)C(C)C)cc1` [Compound 18], the IC50 in the assay with H-ras is above 50 µM.

On to `COC(=O)[C@H](CCSC)NC(=O)c1cc(OCC[C@@H](N)CS)ccc1C(C)C` [Compound 1], for which half-maximal inhibition with H-ras (IC50) required 0.039 µM. In addition, the “potency within the series (in words)” value in the assay on H-ras (statement in Formulations section, test not specified) is “the most potent compound of the series”. For the same compound, the “inhibition of tumor growth / tumor volume (FIG. 1)” value in assay [1] is on record as “inhibition of tumor growth”.

With `CSCC[C@H](NC(=O)c1ccccc1OC[C@@H](/C=C/[C@@H](N)CS)C(C)C)C(=O)O` [Compound 2], the concentration for half-maximal inhibition (IC50) on FTase came to 0.045 µM; on GGTase I it was 1.9 µM.

Turning to `CSCC[C@H](NC(=O)c1cc(OCC[C@@H](N)CS)ccc1C(C)C)C(=O)O` [Compound 11], the 50% inhibitory concentration (IC50) at FTase came out at 0.021 µM; at GGTase I, 0.39 µM.

For the compound `COC(=O)C(CCSC)NC(=O)c1ccccc1OC[C@@H](/C=C/[C@@H](N)CS)C(C)C` (stereo partly drawn) [Compound 15], inhibition with H-ras was half-maximal at 4.1 µM (IC50).

`COC(=O)[C@H](CCSC)NC(=O)c1cc(OC[C@@H](N)CS)ccc1C(C)C` [Compound 25] yielded an IC50 in the assay on H-ras of 3.1 µM.

For the compound `COC(=O)C(CCSC)NC(=O)c1cccc(OC/C=C/[C@@H](N)CS)c1` (stereo partly drawn) [Compound 20], in the assay with H-ras, the “H-ras processing, % inhibition @ 50” value amounted to 38%.

Consider `CSCC[C@H](NC(=O)c1cc(OCC[C@@H](N)CS)ccc1-c1ccccc1)C(=O)O` [Compound 12], for which the IC50 at FTase amounted to 0.004 µM; at GGTase I, 0.038 µM.

On to `CSCC[C@H](NC(=O)c1cc2ccccc2cc1OC[C@@H](/C=C/[C@@H](N)CS)C(C)C)C(=O)O` [Compound 3], for which the IC50 at FTase was 0.5 µM; on GGTase I, 1.7 µM.

As for `CSCC[C@H](NC(=O)c1cc(OCC[C@@H](C)CS)ccc1C(C)C)C(=O)O` [Compound 32], the IC50 at FTase was 0.47 µM; at GGTase I it was 100 µM.

Take `COC(=O)[C@H](CCSC)N(C)Cc1cc(OCC[C@@H](N)CS)ccc1C(C)C` [Compound 28]: the “H-ras processing, % inhibition @ 50” value with H-ras amounted to 42%.

For the compound `CSCC[C@@H](C(=O)O)N(C)Cc1cc(OCC[C@@H](N)CS)ccc1C(C)C` [Compound 31], the IC50 is 0.35 µM on FTase and 8.9 µM on GGTase I.

Take `CSCC[C@H](NC(=O)c1cccc(OC/C=C/[C@@H](N)CS)c1)C(=O)O` [Compound 7]: the IC50 at FTase is 0.093 µM; on GGTase I, 3 µM.

`COC(=O)[C@H](CCSC)NC(=O)c1cc(OCC[C@@H](C)CS)ccc1C(C)C` [Compound 29] had an IC50 in the assay with H-ras above 50 µM.

Regarding `CSCCC(NC(=O)c1ccc(OC[C@@H](/C=C/[C@@H](N)CS)C(C)C)cc1)C(=O)O` (stereo partly drawn) [Compound 5], the IC50 at FTase was found to be 6.3 µM; on GGTase I it was 40 µM.

Consider `CSCC[C@H](NC(=O)c1cc(OC[C@@H](/C=C/[C@@H](N)CS)C(C)C)ccc1C(C)C)C(=O)O` [Compound 9], for which the results for the IC50 on FTase and on GGTase I were 0.022 µM and 3.8 µM, respectively.

With `COC(=O)[C@H](CCSC)NC(=O)c1cccc(OC[C@@H](/C=C/[C@@H](N)CS)C(C)C)c1` [Compound 17], the IC50 in the assay with H-ras is 3.3 µM.

For `CSCC[C@H](NC(=O)c1cc(COC[C@@H](N)CS)ccc1C(C)C)C(=O)O` [Compound 30], the IC50 on FTase was determined as 0.015 µM; at GGTase I it was 0.93 µM.

The compound `COC(=O)[C@H](CCSC)NC(=O)c1cc(OC[C@@H](/C=C/[C@@H](N)CS)C(C)C)ccc1-c1ccccc1` [Compound 23] displayed an IC50 in the assay on H-ras of 31 µM.

Consider `CSCC[C@H](NC(=O)c1cc2ccccc2cc1OC/C=C/[C@@H](N)CS)C(=O)O` [Compound 6], for which the IC50 amounted to 1.3 µM on FTase and 4.2 µM on GGTase I.

Consider `COC(=O)[C@H](CCSC)NC(=O)c1cc2ccccc2cc1OC/C=C/[C@@H](N)CS` [Compound 19], for which the “H-ras processing, % inhibition @ 50” value in the assay with H-ras came out at 46%.

`COC(=O)[C@H](CCSC)NC(=O)c1cc(OCC[C@@H](N)CS)ccc1-c1ccccc1` [Compound 24] came in with an IC50 in the assay with H-ras of 0.298 µM.

Consider `COC(=O)[C@H](CCSC)NC(=O)c1cc(OC[C@@H](N)CS)ccc1-c1ccccc1` [Compound 26], for which inhibition in the assay on H-ras was half-maximal at 3.2 µM (IC50).

As to `COC(=O)[C@H](CCSC)NC(=O)c1cc(OC[C@@H](/C=C/[C@@H](N)CS)C(C)C)ccc1C(C)C` [Compound 22], in the assay on H-ras, the IC50 worked out at 0.122 µM.

Consider `CSCC[C@H](NC(=O)c1cccc(OC[C@@H](/C=C/[C@@H](N)CS)C(C)C)c1)C(=O)O` [Compound 4], for which the IC50 on FTase was found to be 0.03 µM; on GGTase I, 1.9 µM.

Take `CSCC[C@H](NC(=O)c1cc(OC[C@@H](N)CS)ccc1-c1ccccc1)C(=O)O` [Compound 14]: the IC50 amounted to 0.015 µM at FTase and 0.13 µM on GGTase I.

For `COC(=O)[C@H](CCSC)NC(=O)c1cc(COC[C@@H](N)CS)ccc1C(C)C` [Compound 27], the IC50 with H-ras came to 0.049 µM.

`COC(=O)[C@H](CCSC)NC(=O)c1ccc(OC/C=C/[C@@H](N)CS)cc1` [Compound 21] yielded an IC50 with H-ras above 50 µM.
